According to the NIST ThermoML archive (doi:10.1021/je501041r):
Numbers after ± are expanded uncertainties.

Assay: xn = mol fraction of the nth substance listed
Conditions: 101 kPa, Liquid; for viscosity: Capillary tube (Ostwald / Ubbelohde) method; for mass density: Vibrating tube method

CCCCCO [pentan-1-ol] + CC(C)CC(C)(C)C
Conditions	mass density [kg/m3]	viscosity [mPa·s]
298.15 K, x2 = 0	810.59 ± 2	3.458 ± 0.042
298.15 K, x2 = 0.1004	794.33 ± 2	2.615 ± 0.032
298.15 K, x2 = 0.2003	778.35 ± 2	1.984 ± 0.024
298.15 K, x2 = 0.3	763.77 ± 2	1.525 ± 0.018
298.15 K, x2 = 0.4	749.96 ± 2	1.189 ± 0.014
298.15 K, x2 = 0.5	737.18 ± 2	0.948 ± 0.011
298.15 K, x2 = 0.5999	725.64 ± 2	0.785 ± 0.009
298.15 K, x2 = 0.6998	714.97 ± 2	0.663 ± 0.008
298.15 K, x2 = 0.7999	705.08 ± 2	0.579 ± 0.007
298.15 K, x2 = 0.8996	696.03 ± 2	0.518 ± 0.006
303.15 K, x2 = 0	807.89 ± 2	3.007 ± 0.037
303.15 K, x2 = 0.1004	790.55 ± 2	2.291 ± 0.028
303.15 K, x2 = 0.2003	774.49 ± 2	1.758 ± 0.021
303.15 K, x2 = 0.3	759.83 ± 2	1.365 ± 0.016
303.15 K, x2 = 0.4	745.97 ± 2	1.076 ± 0.013
303.15 K, x2 = 0.5	733.13 ± 2	0.867 ± 0.01
303.15 K, x2 = 0.5999	721.55 ± 2	0.724 ± 0.009
303.15 K, x2 = 0.6998	710.84 ± 2	0.623 ± 0.007
303.15 K, x2 = 0.7999	700.93 ± 2	0.552 ± 0.007
303.15 K, x2 = 0.8996	691.85 ± 2	0.49 ± 0.006
308.15 K, x2 = 0	804.16 ± 2	2.625 ± 0.032
308.15 K, x2 = 0.1004	786.73 ± 2	2.038 ± 0.025
308.15 K, x2 = 0.2003	770.6 ± 2	1.562 ± 0.019
308.15 K, x2 = 0.3	755.86 ± 2	1.225 ± 0.015
308.15 K, x2 = 0.4	741.94 ± 2	0.977 ± 0.012
308.15 K, x2 = 0.5	729.05 ± 2	0.797 ± 0.01
308.15 K, x2 = 0.5999	717.43 ± 2	0.671 ± 0.008
308.15 K, x2 = 0.6998	706.68 ± 2	0.579 ± 0.007
308.15 K, x2 = 0.7999	696.74 ± 2	0.513 ± 0.006
308.15 K, x2 = 0.8996	687.64 ± 2	0.466 ± 0.006
313.15 K, x2 = 0	800.4 ± 2	2.317 ± 0.029
313.15 K, x2 = 0.1004	782.88 ± 2	1.806 ± 0.022
313.15 K, x2 = 0.2003	766.66 ± 2	1.403 ± 0.017
313.15 K, x2 = 0.3	751.85 ± 2	1.105 ± 0.013
313.15 K, x2 = 0.4	737.87 ± 2	0.89 ± 0.011
313.15 K, x2 = 0.5	724.94 ± 2	0.734 ± 0.009
313.15 K, x2 = 0.5999	713.27 ± 2	0.624 ± 0.008
313.15 K, x2 = 0.6998	702.49 ± 2	0.549 ± 0.007
313.15 K, x2 = 0.7999	692.51 ± 2	0.482 ± 0.006
313.15 K, x2 = 0.8996	683.4 ± 2	0.438 ± 0.005
318.15 K, x2 = 0	796.59 ± 2	2.029 ± 0.025
318.15 K, x2 = 0.1004	778.99 ± 2	1.618 ± 0.02
318.15 K, x2 = 0.2003	762.69 ± 2	1.255 ± 0.015
318.15 K, x2 = 0.3	747.8 ± 2	1.001 ± 0.012
318.15 K, x2 = 0.4	733.76 ± 2	0.815 ± 0.01
318.15 K, x2 = 0.5	720.78 ± 2	0.679 ± 0.008
318.15 K, x2 = 0.5999	709.06 ± 2	0.582 ± 0.007
318.15 K, x2 = 0.6998	698.25 ± 2	0.518 ± 0.006
318.15 K, x2 = 0.7999	688.24 ± 2	0.454 ± 0.006
318.15 K, x2 = 0.8996	679.11 ± 2	0.422 ± 0.005
323.15 K, x2 = 0	792.75 ± 2	1.795 ± 0.022
323.15 K, x2 = 0.1004	775.05 ± 2	1.443 ± 0.018
323.15 K, x2 = 0.2003	758.67 ± 2	1.131 ± 0.014
323.15 K, x2 = 0.3	743.71 ± 2	0.914 ± 0.011
323.15 K, x2 = 0.4	729.61 ± 2	0.749 ± 0.009
323.15 K, x2 = 0.5	716.58 ± 2	0.63 ± 0.008
323.15 K, x2 = 0.5999	704.82 ± 2	0.548 ± 0.007
323.15 K, x2 = 0.6998	693.98 ± 2	0.486 ± 0.006
323.15 K, x2 = 0.7999	683.93 ± 2	0.428 ± 0.005
323.15 K, x2 = 0.8996	674.79 ± 2	0.393 ± 0.005
